# Measured values: US8586591B2, “Aminopyrazine derivative and medicine” (Nippon Shinyaku Co., Ltd., priority 2009, dated 2013)
# Counter-ions that a name gives are not always drawn.
# Key:
# JAK3 tyrosine kinase = target: T1, JAK3 tyrosine kinase (Homo sapiens, UniProt P52333); test: Test 1: inhibitory activity to JAK3 tyrosine kinase (ELISA); format: biochemical; conditions: 25 μM ATP in substrate solution, 30° C. for 1 hour, n=2
# T1 construct: purchased Carnabioscience Co
# T1 sequence (P52333 1-1124): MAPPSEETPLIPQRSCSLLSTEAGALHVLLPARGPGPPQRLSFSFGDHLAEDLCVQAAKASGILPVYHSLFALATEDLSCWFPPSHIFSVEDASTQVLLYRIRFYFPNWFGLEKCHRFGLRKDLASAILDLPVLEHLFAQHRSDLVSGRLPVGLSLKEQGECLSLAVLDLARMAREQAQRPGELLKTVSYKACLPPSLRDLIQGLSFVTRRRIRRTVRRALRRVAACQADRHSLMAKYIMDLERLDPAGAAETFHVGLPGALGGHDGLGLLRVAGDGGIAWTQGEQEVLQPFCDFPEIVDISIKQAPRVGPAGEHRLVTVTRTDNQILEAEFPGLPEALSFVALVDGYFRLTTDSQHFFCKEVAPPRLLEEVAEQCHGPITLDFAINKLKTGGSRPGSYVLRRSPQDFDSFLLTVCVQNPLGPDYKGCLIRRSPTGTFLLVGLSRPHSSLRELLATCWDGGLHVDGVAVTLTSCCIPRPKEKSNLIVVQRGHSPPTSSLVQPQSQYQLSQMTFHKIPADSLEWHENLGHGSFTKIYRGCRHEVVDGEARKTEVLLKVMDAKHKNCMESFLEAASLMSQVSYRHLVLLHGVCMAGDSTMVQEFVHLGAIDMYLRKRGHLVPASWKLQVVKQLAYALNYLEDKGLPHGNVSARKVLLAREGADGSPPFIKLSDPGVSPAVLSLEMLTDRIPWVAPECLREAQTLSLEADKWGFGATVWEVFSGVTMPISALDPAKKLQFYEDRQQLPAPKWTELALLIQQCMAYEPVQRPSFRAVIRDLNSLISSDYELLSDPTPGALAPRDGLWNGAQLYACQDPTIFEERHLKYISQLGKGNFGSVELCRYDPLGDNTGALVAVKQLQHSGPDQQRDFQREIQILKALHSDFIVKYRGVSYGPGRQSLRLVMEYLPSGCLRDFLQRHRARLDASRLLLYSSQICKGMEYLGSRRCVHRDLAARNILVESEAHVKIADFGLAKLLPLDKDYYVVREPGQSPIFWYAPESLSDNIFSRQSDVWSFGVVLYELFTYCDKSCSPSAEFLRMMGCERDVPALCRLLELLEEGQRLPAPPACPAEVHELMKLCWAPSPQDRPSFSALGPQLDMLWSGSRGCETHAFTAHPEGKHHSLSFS
# In short: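 ELISA of JAK3 kinase activity with absorbance read at 450 nm. Compounds were tested from DMSO dilution series at 100-fold the measurement concentrations (1000–0.01 μM), diluted up to 20 times in assay buffer, against a DMSO negative control. IC50 was estimated by non-linear regression of absorbance.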
# JAK2 tyrosine kinase = target: T2, JAK2 tyrosine kinase (Homo sapiens, UniProt O60674); test: Test 1: inhibitory activity to JAK2 tyrosine kinase (ELISA); format: biochemical; conditions: 25 μM ATP in substrate solution, 30° C. for 1 hour, n=2
# T2 construct: purchased Carnabioscience Co
# T2 sequence (O60674 whole entry): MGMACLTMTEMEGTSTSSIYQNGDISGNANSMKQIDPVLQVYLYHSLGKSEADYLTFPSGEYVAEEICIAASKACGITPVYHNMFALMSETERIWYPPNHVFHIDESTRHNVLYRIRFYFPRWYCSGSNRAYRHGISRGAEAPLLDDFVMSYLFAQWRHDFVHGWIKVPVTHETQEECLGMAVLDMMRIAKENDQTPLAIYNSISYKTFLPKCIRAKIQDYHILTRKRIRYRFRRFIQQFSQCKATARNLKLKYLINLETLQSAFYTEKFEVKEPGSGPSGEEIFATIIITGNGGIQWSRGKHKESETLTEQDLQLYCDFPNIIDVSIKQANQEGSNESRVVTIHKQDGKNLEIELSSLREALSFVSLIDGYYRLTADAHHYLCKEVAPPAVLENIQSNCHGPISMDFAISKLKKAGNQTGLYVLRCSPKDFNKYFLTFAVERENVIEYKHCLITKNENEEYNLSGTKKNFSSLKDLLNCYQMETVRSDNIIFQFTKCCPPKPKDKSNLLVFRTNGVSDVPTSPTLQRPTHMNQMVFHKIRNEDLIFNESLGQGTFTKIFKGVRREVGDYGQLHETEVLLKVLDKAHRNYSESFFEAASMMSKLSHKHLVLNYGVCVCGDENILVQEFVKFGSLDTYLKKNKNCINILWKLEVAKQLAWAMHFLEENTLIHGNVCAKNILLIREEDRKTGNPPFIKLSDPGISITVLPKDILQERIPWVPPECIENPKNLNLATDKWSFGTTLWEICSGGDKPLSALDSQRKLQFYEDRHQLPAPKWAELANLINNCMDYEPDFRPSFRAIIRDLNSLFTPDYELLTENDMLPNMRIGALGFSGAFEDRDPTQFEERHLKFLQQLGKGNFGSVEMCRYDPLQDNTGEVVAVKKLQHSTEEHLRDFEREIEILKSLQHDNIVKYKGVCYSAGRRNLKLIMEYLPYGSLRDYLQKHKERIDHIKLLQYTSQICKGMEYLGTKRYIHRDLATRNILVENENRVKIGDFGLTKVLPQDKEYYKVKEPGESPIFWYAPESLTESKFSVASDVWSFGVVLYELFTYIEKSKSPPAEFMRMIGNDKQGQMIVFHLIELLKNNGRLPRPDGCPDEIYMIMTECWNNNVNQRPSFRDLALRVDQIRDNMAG
# Protocol: Test 1: Test for inhibitory activity to JAK2 and JAK3 tyrosine kinase 1. Preparation of Test Material
# The test material was dissolved in dimethylsulfoxide (DMSO) to be 10 mM, and further diluted with DMSO to be 100-fold concentrations for measurement (1000, 300, 100, 30, 10, 3, 1, 0.3, 0.1, 0.03, 0.01 μM). In addition, solutions diluted with an assay buffer up to 20 times were used as solutions of the test material. As a negative control, a solution of DMSO diluted 20 times with an assay buffer was used. As the assay buffer, 15 mM Tris-Cl (pH 7.5), 0.01 v/v % Tween-20, and 1 mM dithiothreitol were used.
# 2. Measurement of the Activities of JAK2 and JAK3 Tyrosine Kinases
# The activity was determined by ELISA. The solution of the test material (10 μl each; n=2) was placed in a streptavidine-coated 96 well plate (DELFIA Strip Plate 8×12 wells; Perkin Elmer), to which 20 μl each of substrate solution (625 nM biotin-labeled peptide substrate, 25 μM ATP, 25 mM MgCl2, 15 mM Tris-Cl (pH 7.5), 0.01 v/v % Tween-20, and 1 mM dithiothreitol), was added and stirred. Finally, 20 μl each of JAK2 tyrosine kinase (Carnabioscience Co.) (diluted to 0.75 nM with assay buffer) or JAK3 tyrosine kinase (Carnabioscience Co.) (diluted to 0.75 nM with assay buffer) was added, stirred and allowed to stand at 30° C. for 1 hour. The plate was washed 4 times with a washing buffer (50 mM Tris-Cl, pH 7.5, 150 mM NaCl, 0.02 v/v % Tween-20), and then a blocking buffer (0.1% Bovine Serum Albumin, 50 mM Tris-Cl, pH 7.5, 150 mM NaCl, 0.02 v/v % Tween-20)(150 μl each) was added for blocking at 30° C. for 30 minutes. Blocking buffer was removed, and there was added 100 μl each of horse radish peroxidase-labeled anti-phosphorylated tyrosin kinase antibody (BD Bioscience Co.) (diluted 10,000 times with blocking buffer). The plate was incubated at 30° C. for 30 minutes and then washed 4 times with a washing buffer, and 100 μl each of 3,3′,5,5′-tetramethylbenzidine (Sigma-Aldrich Co.) was added to develop color for 10 minutes. 0.1 M sulfuric acid (100 μl each) was added to stop the reaction. The absorbance was measured by means of a micro-plate reader (BIO-RAD; Model 3550) at 450 nm.
# 3. Analysis of the Results of the Measurement
# The measured absorbance was subjected to a non-linear regression analysis by means of a SAS system (SAS Institute Inc.), and the concentration (IC50) of the test material which inhibited 50% of the activity of each tyrosine kinase was estimated.
Compound,IC50 (JAK3 tyrosine kinase),IC50 (JAK2 tyrosine kinase)
"C[C@H](Nc1nc(Nc2cnccn2)cc(N2CCNC2=O)n1)c1ccc(F)cc1 [Example 21, (S)-1-{2-[1-(4-Fluorophenyl)ethylamino]-6-(pyrazin-2-ylamino)pyrimidin-4-yl}imidazolidin-2-one hydrochloride]",950 nM,8.7 nM
"C[C@H](Nc1nc(Nc2cnccn2)cc(N2CCC[C@H]2CO)n1)c1ccc(F)cc1 [Example 69, ((S)-1-{2-[(S)-1-(4-Fluorophenyl)ethylamino]-6-(pyrazin-2-ylamino)pyrimidin-4-yl}pyrrolidin-2-yl)methanol]",83 nM,2.6 nM
"C[C@H](Nc1cc(-c2cnco2)cc(Nc2cnccn2)n1)c1ccc(F)cc1 [Example 8, (S)—N^2-[1-(4-Fluorophenyl)ethyl]-4-(oxazol-5-yl)-N^6-(pyrazin-2-yl)pyridine-2,6-diamine]",82 nM,1.1 nM
"C[C@H](Nc1nc(NCCNS(C)(=O)=O)cc(Nc2cnccn2)n1)c1ccc(F)cc1 [Example 77, (S)—N-(2-{2-[1-(4-Fluorophenyl)ethylamino]-6-(pyrazin-2-ylamino)pyrimidin-4-ylamino}ethyl)methanesulfonamide hydrochloride]",37 nM,0.73 nM
"C[C@H](Nc1cc(-c2ccc(C(N)=O)cc2)cc(Nc2cnccn2)n1)c1ccc(F)cc1 [Example 115, (S)-4-{2-[1-(4-Fluorophenyl)ethylamino]-6-(pyrazin-2-ylamino)pyridin-4-yl}benzamide dihydrochloride]",210 nM,2.3 nM
"C[C@H](Nc1nc(Nc2cnccn2)cc(-c2ccncc2)n1)c1ccc(F)cc1 [Example 15, (S)—N^2-[1-(4-Fluorophenyl)ethyl]-N^4-(pyrazin-2-yl)-6-(pyridin-4-yl)pyrimidine-2,4-diamine]",72 nM,1.3 nM
"C[C@H](Nc1nc(Nc2cnccn2)cc(N2CC(=O)NC(=O)C2)n1)c1ccc(F)cc1 [Example 17, (S)-4-{2-[1-(4-Fluorophenyl)ethylamino]-6-(pyrazin-2-ylamino)pyrimidin-4-yl}piperazine-2,6-dione]",340 nM,4.4 nM
"C[C@H](Nc1nc(Nc2cnccn2)cc(-c2cncc(C#N)c2)n1)c1ccc(F)cc1 [Example 74, (S)-5-{2-[1-(4-Fluorophenyl)ethylamino]-6-(pyrazin-2-ylamino)pyrimidin-4-yl}nicotinonitrile]",230 nM,3.8 nM
"C[C@H](Nc1cc(-c2cnn(CC3CC3)c2)cc(Nc2cnccn2)n1)c1ccc(F)cc1 [Example 48, (S)-4-[1-(Cyclopropylmethyl)-1H-pyrazol-4-yl]-N^2-[1-(4-fluorophenyl)ethyl]-N^6-(pyrazin-2-yl)pyridine-2,6-diamine]",140 nM,6 nM
"C[C@H](Nc1nc(Nc2cnccn2)cc(-c2cncnc2)n1)c1ccc(F)cc1 [Example 52, (S)—N^2-[1-(4-Fluorophenyl)ethyl]-N^6-(pyrazin-2-yl)-4,5′-bipyrimidine-2,6-diamine]",160 nM,2 nM
"C[C@H](Nc1nc(Nc2cnccn2)cc(N(CCO)CCO)n1)c1ccc(F)cc1 [Example 61, (S)-2-({2-[1-(4-Fluorophenyl)ethylamino]-6-(pyrazin-2-ylamino)pyrimidin-4-yl}(2-hydroxyethyl)amino)ethan-1-ol hydrochloride]",150 nM,6 nM

# The next lines start with the values.
IC50 (JAK3 tyrosine kinase),IC50 (JAK2 tyrosine kinase),Compound
1600 nM,28 nM,"COc1ccc(-c2cc(Nc3cnccn3)nc(N[C@@H](C)c3ccc(F)cc3)c2)cc1 [Example 119, (S)—N^2-[1-(4-Fluorophenyl)ethyl]-4-(4-methoxyphenyl)-N^6-(pyrazin-2-yl)pyridine-2,6-diamine hydrochloride]"
130 nM,3.2 nM,"COC1(C)CN(c2cc(Nc3cnccn3)nc(N[C@@H](C)c3ccc(F)cc3)c2)C1 [Example 213, (S)—N^2-[1-(4-Fluorophenyl)ethyl]-4-(3-methoxy-3-methylazetidin-1-yl)-N^6-(pyrazin-2-yl)pyridine-2,6-diamine hydrochloride]"
56 nM,2.2 nM,"CCN(CC)C(=O)C1CN(c2cc(Nc3cnccn3)nc(N[C@@H](C)c3ccc(F)cc3)n2)C1 [Example 181, (S)—N,N-Diethyl-1-{2-[1-(4-fluorophenyl)ethylamino]-6-(pyrazin-2-ylamino)pyrimidin-4-yl}azetidine-3-carboxamide]"
1700 nM,23 nM,"C[C@H](Nc1cc(-c2ccc(F)cc2)cc(Nc2cnccn2)n1)c1ccc(F)cc1 [Example 120, (S)-4-(4-Fluorophenyl)-N^2-[1-(4-fluorophenyl)ethyl]-N^6-(pyrazin-2-yl)pyridine-2,6-diamine hydrochloride]"
59 nM,1.5 nM,"CNC1CN(c2cc(Nc3cnccn3)nc(N[C@@H](C)c3ccc(F)cc3)n2)C1 [Example 221, (S)—N^2-[1-(4-Fluorophenyl)ethyl]-6-[3-(methylamino)azetidin-1-yl]-N^4-(pyrazin-2-yl)pyrimidine-2,4-diamine]"
35 nM,0.8 nM,"C[C@H](Nc1nc(Nc2cnccn2)cc(N2CC(C(=O)N3CCCC3)C2)n1)c1ccc(F)cc1 [Example 193, (S)-(1-{2-[1-(4-Fluorophenyl)ethylamino]-6-(pyrazin-2-ylamino)pyrimidin-4-yl}azetidin-3-yl)(pyrrolidin-1-yl)methanone]"
35 nM,0.64 nM,"C[C@H](Nc1nc(Nc2cnccn2)cc(N2CC(C(=O)N3CCOCC3)C2)n1)c1ccc(F)cc1 [Example 196, (S)-(1-{2-[1-(4-Fluorophenyl)ethylamino]-6-(pyrazin-2-ylamino)pyrimidin-4-yl}azetidin-3-yl) (morpholino) methanone]"
190 nM,2.7 nM,"C[C@H](Nc1cccc(Nc2cnccn2)n1)c1ccc(F)cc1 [Example 117, (S)—N^2-[1-(4-Fluorophenyl)ethyl]-N^6-(pyrazin-2-yl)pyridine-2,6-diamine dihydrochloride]"
1300 nM,17 nM,"C[C@H](Nc1cc(C(=O)NC2CCC2)cc(Nc2cnccn2)n1)c1ccc(F)cc1 [Example 168, (S)—N-Cyclobutyl-2-[1-(4-fluorophenyl)ethylamino]-6-(pyrazin-2-ylamino)isonicotinamide]"
